Data published in PubChem BioAssay (NCI).
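Protocol summary: plate cells (96-well), add compound at 5 concentrations, incubate 48 h, interpolate endpoints linearly. Here, GI50 denotes the concentration required for 50% inhibition of growth. TGI: concentration producing complete growth inhibition.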

Legend:
Experiment in all cases: DTP human tumour cell line panel, 48 h
RXF 393 renal = system: RXF 393 renal
HCT-15 colon = system: HCT-15 colon
EKVX NSCLC = system: EKVX NSCLC
SF-268 CNS = system: SF-268 CNS
HL-60(TB) leukemia = system: HL-60(TB) leukemia
OVCAR-8 ovarian = system: OVCAR-8 ovarian
MOLT-4 leukemia = system: MOLT-4 leukemia
ACHN renal = system: ACHN renal
A549 NSCLC = system: A549 NSCLC

Structure (SMILES)	GI50 (RXF 393 renal) [µM]	TGI (RXF 393 renal) [µM]	GI50 (HCT-15 colon) [µM]	TGI (HCT-15 colon) [µM]	GI50 (EKVX NSCLC) [µM]	TGI (EKVX NSCLC) [µM]	GI50 (SF-268 CNS) [µM]	TGI (SF-268 CNS) [µM]	GI50 (HL-60(TB) leukemia) [µM]	TGI (HL-60(TB) leukemia) [µM]	GI50 (OVCAR-8 ovarian) [µM]	TGI (OVCAR-8 ovarian) [µM]	GI50 (MOLT-4 leukemia) [µM]	TGI (MOLT-4 leukemia) [µM]	GI50 (ACHN renal) [µM]	TGI (ACHN renal) [µM]	GI50 (A549 NSCLC) [µM]	TGI (A549 NSCLC) [µM]
O=C(Nc1ccncc1)C(=O)c1cn(S(=O)(=O)c2cccc(F)c2)c2ccccc12	8.88	66.8	2.74	> 100	4.17	> 100	10.9	> 100	3.36	> 100	5.21	> 100	4.18	> 100	9.5	> 100	13.2	> 100
COc1ccc(N2C(=O)/C(=C/c3ccc(N(CCC#N)CCC#N)cc3C)N=C2c2cc([N+](=O)[O-])ccc2Cl)cc1		> 46.4		59.5		> 46.4		> 63.1		26.6		45.7		53.5		> 63.1		> 72
CC1CN1C(=O)NCCCCCCNC(=O)N1CC1C (stereo not drawn)		> 100		> 100		> 100		> 100		> 100		> 100		> 100		> 100		> 100
COc1ccc2c(c1)C(=O)c1c-2n(CCCn2ccnc2)c(=O)c2cc([N+](=O)[O-])ccc12	< 0.0107		< 0.0329	> 100	0.0646	> 50.9	< 0.01	> 75.5	< 0.01	16.1	< 0.01	> 45.7	< 0.01				< 0.01	
Nc1cccc(S(=O)(=O)NCC(=O)O)c1		> 100		> 100		> 100		> 100				> 100		> 100		> 100		> 100
N#CC(C#N)=C1Nc2ccccc2S1	36	> 100	48	> 100	34.7	> 100	27.8	> 100	30.1	> 100	35.4	> 100	33.3	> 100			23.5	> 100
NC1=NC(c2ccccc2)CC(c2cc(Cl)ccc2O)=N1 (stereo not drawn)		32.9				29.5		30.8		40.1		29.8		33.9		29.4		29
C[C@@H]1OC(=O)N2CCCC(=C3SCCCS3)C12 (stereo partly drawn)		> 100		> 100		> 100		> 100				> 100		> 100		> 100		> 100
Cc1ccc(C(=O)N(CCCN)C(c2oc3cc(Cl)ccc3c(=O)c2Cc2ccccc2)C(C)C)cc1 (stereo not drawn)	< 0.01	1.48	< 0.01	1.57			< 0.01	1.69	< 0.01	0.126	< 0.01	1.79	< 0.01	2.94	1.07	2.39	< 0.01	1.54
Cn1c2ccccc2c2ccc3c(c21)C(=O)c1ccccc1C3=O		32		50.2		> 100		66.6		10.8		61.6				69.2		> 100
CC1(C)OC2=C(CC1Br)C(=O)C(=O)c1ccccc12 (stereo not drawn)	1.9	3.33			1.71	3.47	1.75	3.32	1.8	4.57	2.02	3.89	2.27	5.26	2.03	3.84	2.41	4.87
C/C(CC(=O)Nc1cc(C)ccc1C)=N\NC(=O)c1ccncc1		> 100				> 100		> 100		> 100		> 100		> 100				> 100
CCc1ccccc1NC(=O)C1=C(C)NC(C)=C(C(=O)Nc2ccccc2CC)C1c1ccc2c(c1)OCO2		94.1				> 100		> 100		47.8		> 100		> 100		90.7		> 100
CCC[CH2][Sn]1([CH2]CCC)[O]C(=O)CN=Cc2c(ccc3ccccc23)[O]1	0.136	0.318	0.491	1.75	0.552	1.86	0.351	1.18			> 100	> 100	0.319	1.14	0.319	1.05	1.74	3.4
CNC(=O)C1CCc2nnc(-c3ccccc3)n21 (stereo not drawn)		> 100		> 100		> 100		> 100		> 100				> 100		> 100		> 100
